Reference: patent US20240041042A1, “1-(PYRIDYL)-5-AZINYLPYRAZOLE DERIVATIVES, AND THEIR USE FOR CONTROL OF UNDESIRED PLANT GROWTH” (Bayer Aktiengesellschaft, priority 2020, published 2024)
Where two headings read alike, the source gives them in different places.

Assays:
Assay type in all cases: in vivo
[1] = system: Alopecurus myosuroides (ALOMY); experiment: Post-emergence herbicidal action against ALOMY; conditions: visual rating about 3 weeks after treatment vs untreated controls (100% = plants have died, 0% = like control plants)
Procedure, shortened: (§1)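 Post-emergence greenhouse spray, one-leaf stage, 600 l/ha water plus 0.5% additive; WP or EC formulations; application rates 320 g/ha or lower. Visual % damage vs untreated controls at ~3 weeks.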

Avena fatua (AVEFA) = experiment: Post-emergence herbicidal action against AVEFA; conditions: visual rating about 3 weeks after treatment
Procedure, shortened: as §1

[2] = system: Digitaria sanguinalis (DIGSA); experiment: Post-emergence herbicidal action against DIGSA; conditions: visual rating about 3 weeks after treatment
Procedure: Seeds of monocotyledonous and dicotyledonous weeds and crop plants are placed in sandy loam in plastic or organic planting pots, covered with soil and cultivated in a greenhouse under controlled growth conditions. 2 to 3 weeks after sowing, the test plants are treated at the one-leaf stage. The compounds of the invention, formulated in the form of wettable powders (WP) or as emulsion concentrates (EC), are then sprayed onto the green parts of the plants as aqueous suspension or emulsion with addition of 0.5% additive at a water application rate of 600 l/ha (converted). After the test plants have been kept in the greenhouse under optimum growth conditions for about 3 weeks, the activity of the preparations is rated visually in comparison to untreated controls. For example, 100% activity=the plants have died, 0% activity=like control plants.
Tables B1 to B13 below show the effects of selected compounds of the general formula (I) according to Table 1 on various harmful plants and at an application rate corresponding to 320 g/ha or lower, which were obtained by the experimental procedure mentioned above. The appendices “a”, “b” and “c” give differentiation by dosage used with otherwise the same harmful plants tested.

[3] = system: Echinochloa crus-galli (ECHCG); experiment: Post-emergence herbicidal action against ECHCG
Procedure, shortened: as §1

Lolium rigidum (LOLRI) = experiment: Post-emergence herbicidal action against LOLRI
Procedure, shortened: as §1

[4] = system: Matricaria inodora (MATIN); experiment: Post-emergence herbicidal action against MATIN
Procedure, shortened: as §1

[5] = system: Pharbitis purpurea (PHBPU); experiment: Post-emergence herbicidal action against PHBPU
Procedure, shortened: as §1

Setaria viridis (SETVI) = experiment: Post-emergence herbicidal action against SETVI
Procedure, shortened: as §1

[6] = system: Verconica persica (VERPE); experiment: Post-emergence herbicidal action against VERPE
Procedure, shortened: as §1

Viola tricolor (VIOTR) = experiment: Post-emergence herbicidal action against VIOTR
Procedure, shortened: as §1

Oryza sativa (ORYSA) = conditions: crop plant compatibility
Procedure, shortened: (§2)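 Test crops were treated 2 to 3 weeks after sowing, once they reached one leaf, by spraying compound in water with 0.5% additive at 600 l/ha. Visual scoring compared them with untreated controls roughly 3 weeks on, and appendices a, b and c denote different doses.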

Zea mays (ZEAMX) = conditions: for Post-emergence action against ZEAMX in % (crop plant compatibility): 20 g/ha, effect in comparison to untreated controls; for Post-emergence action against ZEAMX in %: crop plant compatibility, effect vs untreated controls
Procedure, shortened: as §2

[7] = system: Polygonum convolvulus (POLCO); experiment: Post-emergence herbicidal action against POLCO
Procedure, shortened: as §1

[8] = system: Abutilon theophrasti (ABUTH); experiment: Post-emergence herbicidal action against ABUTH; conditions: visual rating about 3 weeks after treatment vs untreated controls (100% = plants have died, 0% = like control plants)
Procedure, shortened: as §1

[9] = system: Amaranthus retroflexus (AMARE); experiment: Post-emergence herbicidal action against AMARE
Procedure, shortened: as §1

[10] = 20 g/ha, effect vs untreated controls
[11] = 80 g/ha, effect in comparison to untreated controls
[12] = 80 g/ha, visual rating about 3 weeks after treatment vs untreated controls (100% = plants have died, 0% = like control plants)
[13] = 320 g/ha, visual rating about 3 weeks after treatment

Structure (SMILES)	Post-emergence action against ALOMY in % ([1]; 320 g/ha) [%]	Post-emergence action against AVEFA in % (Avena fatua (AVEFA); 80 g/ha) [%]	Post-emergence action against AVEFA in % (Avena fatua (AVEFA); 320 g/ha) [%]	Post-emergence action against DIGSA in % ([2]; 80 g/ha) [%]	Post-emergence action against DIGSA in % ([2]; 320 g/ha) [%]	Post-emergence action against ECHCG in % ([3]; dosage 80 g/ha) [%]	Post-emergence action against ECHCG in % ([3]; dosage 320 g/ha) [%]	Post-emergence action against LOLRI in % (Lolium rigidum (LOLRI); dosage 80 g/ha) [%]	Post-emergence action against LOLRI in % (Lolium rigidum (LOLRI); dosage 320 g/ha) [%]	Post-emergence action against PHBPU in % ([5]; dosage 320 g/ha) [%]	Post-emergence action against SETVI in % (Setaria viridis (SETVI); dosage 80 g/ha) [%]	Post-emergence action against SETVI in % (Setaria viridis (SETVI); dosage 320 g/ha) [%]	Post-emergence action against VERPE in % ([6]; 320 g/ha, VERPE) [%]	Post-emergence action against VERPE in % ([6]; dosage 80 g/ha) [%]	Post-emergence action against VIOTR in % (Viola tricolor (VIOTR); 80 g/ha) [%]	Post-emergence action against VIOTR in % (Viola tricolor (VIOTR); 320 g/ha) [%]	Post-emergence action against ORYSA in % (Oryza sativa (ORYSA); [10]) [%]	Post-emergence action against ZEAMX in % (crop plant compatibility) (Zea mays (ZEAMX)) [%]	Post-emergence action against POLCO in % ([7]; dosage 80 g/ha) [%]	Post-emergence action against POLCO in % ([7]; dosage 320 g/ha) [%]	further results
O=C(COc1nn(-c2ncccc2F)c(-c2ccc(F)nc2)c1C1CC1)OCC1COC1 [Example I-264]	90	80	90	80	80	90	90	90	90	80	90	90	90	80	90	90	0	10			Post-emergence action against MATIN in % ([4]; dosage 320 g/ha): 80%; Post-emergence action against PHBPU in % ([5]; dosage 80 g/ha): 80%; Post-emergence action against ORYSA in % (Oryza sativa (ORYSA); [11]): 10%; Post-emergence action against ZEAMX in % (Zea mays (ZEAMX); 80 g/ha): 20%
C[C@@H](Oc1nn(-c2ncccc2F)c(-c2cncc(F)c2)c1C1CC1)C(=O)O [Example I-166]	90	90	90	90	90	80	80	80	90	90	90	90	80	80	80	80	0	10	80	80	Post-emergence action against ALOMY in % ([1]; 80 g/ha): 90%; Post-emergence action against MATIN in % ([4]; dosage 80 g/ha): 80%; Post-emergence action against MATIN in % ([4]; dosage 320 g/ha): 90%; Post-emergence action against PHBPU in % ([5]; dosage 80 g/ha): 80%; Post-emergence action against ORYSA in % (Oryza sativa (ORYSA); [11]): 20%
CC(C)OC(=O)COc1nn(-c2ncccc2F)c(-c2ccc(F)nc2)c1C1CC1 [Example I-328]	90	90	90	90	90	90	90	90	90	90	90	90	90	90	80	90	0	0	90	90	Post-emergence action against ABUTH in % ([8]; 80 g/ha): 80%; Post-emergence action against ABUTH in % ([8]; 320 g/ha): 80%; Post-emergence action against ALOMY in % ([1]; 80 g/ha): 90%; Post-emergence action against AMARE in % [9, 12]: 90%; Post-emergence action against AMARE in % [9, 13]: 90%; Post-emergence action against PHBPU in % ([5]; dosage 80 g/ha): 90%; Post-emergence action against ZEAMX in % (Zea mays (ZEAMX); 80 g/ha): 0%
COC(=O)C(C)COC(=O)[C@@H](C)Oc1nn(-c2ccccn2)c(-c2ccc(F)nc2)c1Cl (some centres unmarked) [Example I-267]	90	90	90		90		90	90	100	90	90	90	90	90	90	90		0	80	80	Post-emergence action against ABUTH in % ([8]; 80 g/ha): 80%; Post-emergence action against ABUTH in % ([8]; 320 g/ha): 90%; Post-emergence action against AMARE in % [9, 12]: 80%; Post-emergence action against AMARE in % [9, 13]: 80%; Post-emergence action against ZEAMX in % (Zea mays (ZEAMX); 80 g/ha): 20%
CCOC(=O)COc1nn(-c2ncccc2F)c(-c2cncc(F)c2)c1C(F)(F)F [Example I-141]	90		80	90	90	80	80		90	90	90	90	90	90	80	80	10		80	80	Post-emergence action against AMARE in % [9, 12]: 80%; Post-emergence action against AMARE in % [9, 13]: 90%; Post-emergence action against MATIN in % ([4]; dosage 80 g/ha): 80%; Post-emergence action against MATIN in % ([4]; dosage 320 g/ha): 90%; Post-emergence action against PHBPU in % ([5]; dosage 80 g/ha): 80%
CCOC(=O)[C@@H](C)Oc1nn(-c2ncccc2F)c(-c2ccnc(F)c2)c1Br [Example I-133]	90		80		80		90		90	80		80	80	80	80	90	0	0	80	80	Post-emergence action against ABUTH in % ([8]; 320 g/ha): 80%; Post-emergence action against ORYSA in % (Oryza sativa (ORYSA); [11]): 10%; Post-emergence action against ZEAMX in % (Zea mays (ZEAMX); 80 g/ha): 0%; Post-emergence action against ZEAMX in % (Zea mays (ZEAMX); 320 g/ha): 20%
